# Results as given in patent US20260274922A1, “SYNTHETIC ESTROGEN RECEPTOR (ER)-DERIVED PEPTIDE” (THE TEXAS A&M UNIVERSITY SYSTEM, priority 2023, published 2026).
# Where no end group is shown, it is not given here. The star is where a group is joined. FITC = O=C1OC2(c3ccc(O)cc3Oc3cc(O)ccc32)c2ccc(NC(=S)*)cc21
# Legend:
# [1] = tested on: diet-induced obesity (DIO) mice; assay type: in vivo, mouse
# Procedure: (§1) Obese mouse models and AF1 peptide treatment. For the high-fat diet (HFD)-induced obese mouse model, the 6-8-week-old male mice were fed with HFD (HFD; 60% kcal from fat, D12492; Research diet, New Brunswick, NJ) for 11 weeks. Then mice received 5 mg/kg body weight control or AF1 peptide through retro orbital injection (twice per week; 5 weeks). For genetic obesity mouse model, the 8-week-old db/db mice were administered with 5 mg/kg body weight control or AF1 peptide through retro orbital injection (twice per week; 5 weeks). Glucose tolerance and insulin tolerance tests were performed in the fourth and fifth week after treatment, respectively. Body composition was measured using EchoMRI™ one day before sacrificing the mice.
# (§2) Glucose and insulin tolerance tests. For glucose tolerance tests, mice were fasted for 16 h and intraperitoneally (i.p.) injected with dextrose (1 g/kg body weight for mice fed with regular diet; 0.5 g/kg body weight for db/db mice or mice fed with HFD). For insulin tolerance tests, mice were fasted for 6 h and i.p. injected with insulin solution (1 U/kg body weight for male mice; 0.75 U/kg body weight for female mice). Blood glucose levels were measured using glucometer at indicated time points.
# RNA extraction and quantitative real-time PCR. Total RNA was extracted from livers or primary hepatocytes using TRIzol (Invitrogen, Thermo Fisher Scientific), purified with chloroform, 80% ethanol, isopropanol, and RNA column, eluted with RNase free water, and reverse transcribed into cDNA using iScript Reverse Transcription Supermix (Bio-Rad, Hercules, CA). Quantitative real-time PCR (qPCR) was conducted using SsoAdvanced Universal SYBR Green Supermix (Bio-Rad, Hercules, CA) on CFX384 real-time PCR detection system (Bio-Rad, Hercules, CA). Q-PCR started with 95° C. incubation for 3 min, followed by 39 cycles of 95° C. for 5 s and 60° C. for 30 s. The threshold cycle (CT) values were obtained and used to calculate the relative transcriptional level of target genes by 2^−ΔΔCT method with Cyclophilin (Cyp) as an internal control. […].
# (§3) Hematoxylin and eosin staining and Oil Red O staining. Livers were embedded into paraffin after being fixed by PFA, and then cut into 5 μm sections. After deparaffinization and hydration, liver sections were stained with hematoxylin for 5 min. After differentiation by 1% acid alcohol, liver sections were stained with 1% eosin for 3 min. Finally, liver sections were dehydrated and mounted with mounting media. For Oil Red O staining, liver frozen sections were prepared and fixed in 10% neutral buffered formalin for 10 min after air dry for 1 h. Liver sections were stained in Oil Red O working solution for 15 min after a quick dip in 60% isopropanol. Liver sections were then stained with hematoxylin for 3 min and covered with aqueous mounting gel. Liver sections were observed using slide scanner (Leica).
# (§4) Co-immunoprecipitation and Western blotting analysis. […] Protein bands were detected using a ChemiDoc image system.
# (§5) Serum lipid profile analysis. Serum triglyceride, AST, ALT, cholesterol, LDL, HDL, NEFA, and ALP were measured using DxC 700 AU Chemistry Analyzer (Beckman Coulter).
# Serum insulin and liver triglyceride analysis. Serum insulin and triglyceride levels were measured by using mouse insulin ELISA kit (Mercodia) and triglyceride assay kit (Abcam), respectively.
# [2] = tested on: primary mouse hepatocytes; assay: Hepatic glucose production (HGP) in primary hepatocytes upon glucagon treatment; assay type: cell-based; conditions: WT primary hepatocytes
# Procedure: Hepatic glucose production. The primary mouse hepatocytes were isolated from 8-12-week-old male mice. Cells were resuspended in DMEM medium (2% FBS and 1% penicillin-streptomycin) for 3 h and cultured in HGP buffer (118 mM NaCl, 2.5 mM CaCl2, 4.8 mM KCl, 25 mM NaHCO3, 1.1 mM KH2PO4, 1.2 mM MgSO4, […], 0.6% BSA, 10 mM HEPES, 10 mM sodium DL-lactate, and 5 mM pyruvate, pH 7.4). Then cells were pretreated with 50 nM glucagon for 30 min, followed by 10 nM insulin treatment for 3 h, and glucose level in the medium was measured using Amplex Red Glucose Assay. The results were normalized by cell protein abundance.
# db/db mice = assay type: in vivo, mouse
# Procedure: as §1, §2, §3, §4, §5
# Serum insulin and liver triglyceride analysis. Serum insulin and triglyceride levels were measured by using mouse insulin ELISA kit (Mercodia) and triglyceride assay kit (Abcam), respectively. […]
# [3] = DIO mice, 5 mg/kg twice per week, 5 weeks
# [4] = DIO mice, 5 mg/kg twice per week, 5 weeks, vs CNTR
# [5] = db/db mice, 5 mg/kg twice per week, 5 weeks
# [6] = db/db mice, 5 mg/kg twice per week, 5 weeks, vs CNTR
sequence,measurement,setting,value
YGRKKRRQRRRTKASGMALLHEPLNRPQLKIPLERDSSKPAVYNY ({FITC}-YGRKKRRQRRRTKASGMALLHEPLNRPQLKIPLERDSSKPAVYNY) [AF1 peptide],decrease in serum NEFA,[1]; DIO mice,21%
same,decrease in serum cholesterol,[1]; DIO mice,8%
same,decrease in serum triglyceride,[1]; DIO mice,21%
same,glucose tolerance,[1]; DIO mice,significantly improved
same,insulin sensitivity,[1]; DIO mice,significantly improved
same,serum HDL,[1]; DIO mice,decreases
same,serum LDL,[1]; DIO mice,decreases
same,serum insulin,[1]; DIO mice,not changed
same,overnight fasting blood glucose,[1]; [3],85.4 ± 0.2 mg/dL
same,random feeding blood glucose,[1]; [3],154.2 ± 4.7 mg/dL
same,decrease in overnight fasting blood glucose,[1]; [4],20%
same,decrease in random feeding blood glucose,[1]; [4],12%
same,liver fat accumulation,"[1]; DIO mice, H&E staining",ameliorated
same,decrease in pIRS1-302,"[1]; DIO mice, liver",32%
same,increase in IRS1,"[1]; DIO mice, liver",49%
same,increase in pAKT-308,"[1]; DIO mice, liver",51%
same,increase in pAKT-S473,"[1]; DIO mice, liver",100%
same,mRNA expression of FAO gene (Hadha),"[1]; DIO mice, liver, q-PCR",increased
same,mRNA expression of gluconeogenic gene (Pck1),"[1]; DIO mice, liver, q-PCR",significantly decreased
same,mRNA expression of inflammatory cytokine (Il6),"[1]; DIO mice, liver, q-PCR",significantly decreased
same,mRNA expression of lipogenic gene (Fasn),"[1]; DIO mice, liver, q-PCR",significantly decreased
same,serum ALP,"[1]; mouse, in vivo",not changed
same,serum ALT,"[1]; mouse, in vivo",not changed
same,serum AST,"[1]; mouse, in vivo",not changed
same,glucagon-induced hepatic glucose production (HGP),[2],did not impair
same,enhancement of insulin-mediated suppression of HGP,[2]; under glucagon challenge,22%
same,liver triglycerides,db/db mice; db/db mice,decreasing trend
same,serum HDL,db/db mice; db/db mice,significantly reduced
same,serum LDL,db/db mice; db/db mice,significantly reduced
same,serum NEFA,db/db mice; db/db mice,significantly reduced
same,serum cholesterol,db/db mice; db/db mice,significantly reduced
same,serum insulin,db/db mice; db/db mice,limited effect
same,serum triglycerides,db/db mice; db/db mice,decreasing trend
same,overnight fasting blood glucose,db/db mice; [5],103.8 ± 3.6 mg/dL
same,random feeding blood glucose,db/db mice; [5],360.7 ± 25.1 mg/dL
same,decrease in overnight fasting blood glucose,db/db mice; [6],35%
same,reduction in random feeding blood glucose,db/db mice; [6],22%
same,liver steatosis (steatosis structure and liver fat amount),"db/db mice; db/db mice, H&E and Oil Red O staining",significantly decreased
same,blood glucose upon glucose or insulin challenge,"db/db mice; db/db mice, glucose and insulin tolerance tests",significantly decreased
same,decrease in pIRS1-S302,"db/db mice; db/db mice, liver",61%
same,increase in IRS1,"db/db mice; db/db mice, liver",114%
same,increase in pAKT-S473,"db/db mice; db/db mice, liver",98%
same,increase in pAKT-T308,"db/db mice; db/db mice, liver",101%
same,pAKT-S473 and pAKT-T308,"db/db mice; db/db mice, skeletal muscle and epididymal fat tissues",significantly increased
same,serum ALP,"db/db mice; mouse, in vivo",limited effect
same,serum ALT,"db/db mice; mouse, in vivo",limited effect
same,serum AST,"db/db mice; mouse, in vivo",significantly reduced
